Laboratory results reported in article PMC10915964, “Identifying ligands for the PHD1 finger of KDM5A through high-throughput screening†” (RSC Chemical Biology, 2023).

Assay: Solubility in the NMR buffer
Assay type: physicochemical
Conditions: 1 mM in 50 mM HEPES pH 7.5, 150 mM KCl NMR buffer
Method: The binding of the ChemBridge screen hits to PHD1 was further evaluated using 2D ^1H–^15N HSQC NMR spectroscopy. This direct binding method allowed us to monitor binding by observing any ligand-induced changes in the previously assigned ^1H–^15N PHD1 amino acid resonances.[12] The HSQC spectra of 50 μM ^15N-labeled PHD1 with DMSO were overlaid with the spectra of the ^15N-labeled PHD1 incubated with 1 mM compound. […] Compound 715 958 was insoluble in the NMR buffer at this concentration and was not evaluated.
The six NCI screen hits confirmed by dose response in the FP assay were further evaluated by 2D ^1H–^15N HSQC NMR at 1 mM to assess their direct binding to PHD1 (Fig. S5, ESI ^†). Compound 990 670 was insoluble in the NMR buffer and was excluded from further consideration. Out of the five compounds evaluated, 991 830, 990 856, and 988 385 caused very minor CSP on PHD1 (average shifts ≤ 0.002 ppm; Fig. S5a–c, ESI ^†). […] The observed perturbations are low, but in the range of those induced by competitive binding fragment ligands evaluated at 5 mM with the PHD finger of BAZ2B, for which the perturbations observed were up to 0.035 ppm.[19] Residue Cys322, one of the Zn(II) ligands in the first zinc finger in PHD1, is the most affected by the presence of oxazepine 516 969 (Δδ of 0.009 ppm; Fig. S5d, ESI ^†). […]

- solubility in the NMR buffer: insoluble
Compound: Cc1ccc(N2CC(c3nnc(NC(=O)c4c(-c5ccccc5)noc4C)s3)CC2=O)cc1C (stereo not shown) [990 670]
